Laboratory results published in paper PMC8858294, “Impact of distant peptide substrate residues on enzymatic activity of SlyD” (Cellular and Molecular Life Sciences: CMLS, 2022).
Ends that are not written are not given here.

Tests used:
[1] = molecular target: T1, SlyD^WT IF (chaperone) domain (Thermus thermophilus, UniProt Q5SLE7); experiment: biochemical; type: binding
T1 sequence (Q5SLE7 70-117): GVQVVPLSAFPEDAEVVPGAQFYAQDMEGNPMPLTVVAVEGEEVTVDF
Description: (§1) ITC was measured using MicroCal VP-ITC calorimeter (Malvern) and analysed with MicroCal ITC-ORIGIN Analysis Software. First 1 × 3 µl and then 42 × 6.5 µl of 1.2 mM peptides dissolved in 20 mM HEPES (pH 7.5) and 100 mM NaCl were injected every 240 s from the syringe into the cell containing 50 µM SlyD at 25 °C. The resulting isotherms were fitted with one binding site model in case of SlyDΔIF construct and with two binding site model in case of the wild-type SlyD.

SlyDΔIF [2] = molecular target: T2, SlyDΔIF (Thermus thermophilus, UniProt Q5SLE7); experiment: Label-free 1H NMR lineshape prolyl isomerase activity assay with SlyDΔIF; type: biochemical; details: 1H NMR lineshape analysis, 100 µM peptide, 0 to 6 µM enzyme, 25 °C, 20 mM HEPES, 100 mM NaCl, pH 7.5; linear regression of exchange rate vs enzyme concentration; technical triplicates; error one standard deviation
Description: (§2) ^1H NMR spectra of 100 µM peptide samples in 20 mM HEPES, 100 mM NaCl, pH 7.5 were acquired on a Bruker Avance III NMR-spectrometer at 25 °C and different concentrations of enzyme (0 to 6 µM). Samples contained 10% (v/v) D2O and 0.5 mM TCEP. Spectra have been corrected by subtracting identically measured and processed spectra of enzyme only samples, in order to rule out any influence of signals from the enzymes. Spectra were processed using Topspin (Bruker, Inc) and analyzed in MATLAB (mathworks). […] The obtained relative line broadening of the cis and trans signals of methyl group I, is caused by chemical exchange between the two forms and depends on the population of the cis and trans forms, their chemical shift difference (which are both known from experiments without enzyme) and the apparent exchange rate which was derived from the fit. Errors in the fitted parameters were estimated using Monte-Carlo simulations; the reported errors correspond to one standard deviation.
(§3) Tetrapeptides terminally fused with fluorophores sensitive to proline isomerization have been routinely used to study the activity of peptidyl-prolyl cis–trans isomerases, such as SlyD [11]. […] Studying longer peptides usually requires 2D NMR spectroscopy, often in combination with ^13C labeling, in order to detect separate signals for the cis and trans state. […] This approach, which was initially developed for chemically modified tetrapeptides, relies only on the interaction of a leucine residue upstream of the proline (i − 1) and a phenylalanine residue downstream of the proline (i + 1). The different orientations of the leucine and phenylalanine residues in cis and trans proline conformations give rise to different signals for one of the leucine methyl groups (I), while the other methyl group (II) is mostly unaffected (Fig. 2A). At the same time, the impact of the proline cis/trans conformation on the leucine methyl groups is not dependent on the length of the peptide. The only requirement for the design of the peptide substrate is the absence of additional leucine, isoleucine or valine residues that could interfere with the NMR signals of interest. The linewidth of the signals is affected by the enzymatic turnover rate, which itself is dependent on the enzyme concentration (Fig. 2A). The enzymatic activity (kcat/KM) is then determined by the linear regression of the determined rate at various enzyme concentrations at a fixed substrate concentration below KM (Fig. 2B and SI Fig. 1).

[3] = molecular target: T3, SlyD^WT FKBP (PPIase) domain (Thermus thermophilus, UniProt Q5SLE7); experiment: biochemical; type: binding
T3 sequence (Q5SLE7 1-149): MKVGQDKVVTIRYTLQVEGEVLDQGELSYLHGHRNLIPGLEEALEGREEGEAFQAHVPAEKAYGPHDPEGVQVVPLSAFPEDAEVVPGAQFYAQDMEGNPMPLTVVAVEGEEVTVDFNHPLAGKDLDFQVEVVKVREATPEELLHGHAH
Description: as §1

SlyD^WT = experiment: Label-free 1H NMR lineshape prolyl isomerase activity assay with SlyD^WT; type: biochemical, Thermus thermophilus; details: for kcat/KM (SlyD^WT): 1H NMR lineshape analysis, 100 µM peptide, 0 to 6 µM enzyme, 25 °C, 20 mM HEPES, 100 mM NaCl, pH 7.5, linear regression of exchange rate vs enzyme concentration, technical triplicates, error one standard deviation
Description: as §2, §3

SlyDΔIF [4] = molecular target: T2, SlyDΔIF; experiment: ITC, peptide binding to SlyDΔIF (one binding site model); details: read-out: KD (SlyDΔIF), 1.2 mM peptide into 50 µM SlyD, 25 °C, 20 mM HEPES pH 7.5, 100 mM NaCl, ± error of fit
Description: as §1

[5] = system: SlyD^WT FKBP (PPIase) domain; experiment: biochemical; type: binding, Thermus thermophilus; details: ITC, SlyD^WT and SlyDΔIF
Description: as §1

Row | Substance | Kd [1] [µM] | kcat/KM (SlyDΔIF) (SlyDΔIF [2]) [M⁻¹ s⁻¹] | Kd [3] [µM] | kcat/KM (SlyD^WT) (SlyD^WT) [M⁻¹ s⁻¹] | Kd (SlyDΔIF [4]) [µM] | reduction in affinity compared to the psWT peptide [5] | increase of activity by the chaperone domain (factor, SlyD^WT vs SlyDΔIF) (SlyD^WT; 15-residue peptide at 100 µM, chaperone domain occupied)
1 | TRYANAKMLPFAFGA [W4A] | 0.75 ± 0.06 | 1.1e+06 ± 200000 | 8.4 ± 0.4 | 2e+06 ± 200000 | – | – | –
2 | H-TRYWNAKMLPFAEGA-OH [F13E] | 1.15 ± 0.01 | 100000 ± 100000 | 10.4 ± 0.5 | 7e+06 ± 600000 | 36.1 ± 0.8 | up to fivefold | –
3 | H-TRYENAKMLPFAFGA-OH [W4E] | 0.86 ± 0.02 | 900000 ± 200000 | 13.9 ± 0.9 | 4.4e+06 ± 200000 | – | up to fivefold | –
4 | H-TRYKNAKMLPFAFGA-OH [W4K] | 0.21 ± 0.01 | 3.5e+06 ± 700000 | 3.2 ± 0.3 | 2.2e+06 ± 300000 | 12.6 ± 0.8 | – | –
5 | H-TRYWNAKMLPFAFGL-OH [A15L] | 0.16 ± 0.02 | – | 4.1 ± 0.1 | – | 14.8 ± 0.2 | – | –
6 | TRAWNAKMLPFAFGA [Y3A] | 0.72 ± 0.1 | 2.5e+06 ± 300000 | 17.3 ± 1.3 | 3.9e+06 ± 400000 | 51.5 ± 8.6 | – | –
7 | H-TRYWNAKMLPFAFMA-OH [G14M] | 0.1 ± 0.01 | – | 2.2 ± 0.1 | – | 8.3 ± 0.5 | – | –
8 | TRYWNAKMLPFAAGA [F13A] | 0.38 ± 0.02 | 400000 ± 100000 | 6.4 ± 0.3 | 3.1e+06 ± 100000 | 22.7 ± 0.6 | – | –
9 | H-TRYWNAKMLPFAKGA-OH [F13K] | 0.11 ± 0.02 | 2.3e+06 ± 300000 | 5.2 ± 0.2 | 3.4e+06 ± 100000 | 20 ± 0.7 | – | –
10 | TRYWNAKMLPFAFGA [psWT] | 0.22 ± 0.01 | 2.2e+06 ± 300000 | 3.5 ± 0.1 | 4.9e+06 ± 300000 | 15.6 ± 0.2 | – | 2.2
11 | R2A: psWT peptide substrate with mutation R2A (TAYWNAKMLPFAFGA) | – | 1.3e+06 ± 200000 | – | 5.1e+06 ± 300000 | – | – | –
12 | TRYWNAKALPFAFGA [M8A] | 0.24 ± 0.01 | 3.1e+06 ± 100000 | 6 ± 0.1 | 7.7e+06 ± 900000 | 19.4 ± 1 | – | –
